Experiments:
[1] = test system: advanced or metastatic solid tumors; test: Phase 1 study: clinical response (RECIST v1.1), PFS; type: in vivo, human
From the text: Secondary objectives included assessment of AEs, treatment-related AEs, objective response rate (ORR), disease control rate (DCR), progression-free survival (PFS), and PK, pharmacodynamic, and pharmacogenomic (PGx) parameters with TAS4464 administration. The National Cancer Institute Common Terminology Criteria for Adverse Events (NCI CTCAE) v4.03 [17] was used to assess the severity of AEs. The Medical Dictionary for Regulatory Activities (MedDRA) version 22.1 was used to classify AEs. RECIST v1.1 [16] was used to determine clinical response, and all computed tomography images were assessed by the physician at the study site after completion of the imaging procedure. The ORR was defined as the percentage of patients with the best overall response of complete response (CR) or partial response (PR). The DCR was the percentage of patients with a best overall response of CR, PR, stable disease (SD), or non-CR/non-progressive disease (PD). PFS was defined as the time from the date of enrollment until the date of investigator-assessed radiological disease progression or death due to any cause, whichever occurred first. The analysis populations included in the study are summarized in the Supplementary Appendix. DLTs were recorded by incidence and 95% confidence intervals (CI). Median PFS and 95% CIs were calculated using Kaplan–Meier methodology. Best overall response was tabulated, and the ORR and DCR with 95% CIs were calculated by dose level. PK parameters were evaluated using non-compartmental methods. For the pharmacodynamic parameter of cullin-NEDD8 in PBMC, summary statistics and a scatter plot of the percentage change from baseline were produced. Missing data were not imputed. […] SAS software v9.4 (SAS Institute Inc., Cary NC, USA) was used for all statistical processing.

[2] = Plasma pharmacokinetics of TAS4464 in patients; type: in vivo, human
Experimental: The PK endpoints included maximum plasma concentration (Cmax), area under the concentration–time curve from time zero up to the last observable concentration (AUC0-last) and plasma accumulation of TAS4464 after multiple doses. PK parameters were evaluated on Day 1 of Cycle 1 and Day 15 of Cycle 1 in the weekly dosing cohort, as well as on Day 1 of the lead-in period and Day 1 of Cycle 1 in the weekly with lead-in dosing cohort. The evaluation of the relationship between solute carrier organic anion transporter family member 1B1 (SLCO1B1) genetic polymorphisms and PK (i.e., the mean and individual clearance [CL] and volume of distribution at steady-state [Vdss] by each OATP1B1 phenotype) was assessed as the PGx analysis endpoint.
The analysis populations included in the study are summarized in the Supplementary Appendix. DLTs were recorded by incidence and 95% confidence intervals (CI). Median PFS and 95% CIs were calculated using Kaplan–Meier methodology. Best overall response was tabulated, and the ORR and DCR with 95% CIs were calculated by dose level. PK parameters were evaluated using non-compartmental methods. For the pharmacodynamic parameter of cullin-NEDD8 in PBMC, summary statistics and a scatter plot of the percentage change from baseline were produced. Missing data were not imputed. […] SAS software v9.4 (SAS Institute Inc., Cary NC, USA) was used for all statistical processing.

[3] = weekly dosing Level 1 (10 mg/m^2), n = 1
[4] = weekly dosing Level 2 (20 mg/m^2), n = 1
[5] = weekly dosing Level 3 (40 mg/m^2), n = 3
[6] = weekly dosing Level 4 (56 mg/m^2), n = 5
[7] = weekly dosing with lead-in Level 3 (20 → 40 mg/m^2), n = 3
[8] = weekly dosing with lead-in Level 4 (20 → 56 mg/m^2), n = 3
[9] = weekly dosing with lead-in Total, n = 6
[10] = plasma, multiple doses, data not shown

CCOc1cccc(F)c1C#Cc1cn([C@@H]2O[C@H](CNS(N)(=O)=O)[C@@H](O)[C@H]2O)c2ncnc(N)c12 [TAS4464]
Disease control rate (CR + PR + SD + non-CR/non-PD) ([1]; Total, N = 16): 5 (31.3) n (%)
Not evaluable (best overall response) ([1]; Total, N = 16): 1 (6.3) n (%)
PD (best overall response) ([1]; Total, N = 16): 10 (62.5) n (%)
Response rate (CR + PR) ([1]; Total, N = 16): 0 n (%)
Disease control rate (CR + PR + SD + non-CR/non-PD) [1, 3]: 1 (100.0) n (%)
Not evaluable (best overall response) [1, 3]: 0 n (%)
PD (best overall response) [1, 3]: 0 n (%)
Response rate (CR + PR) [1, 3]: 0 n (%)
Disease control rate (CR + PR + SD + non-CR/non-PD) [1, 4]: 1 (100.0) n (%)
Not evaluable (best overall response) [1, 4]: 0 n (%)
PD (best overall response) [1, 4]: 0 n (%)
Response rate (CR + PR) [1, 4]: 0 n (%)
Disease control rate (CR + PR + SD + non-CR/non-PD) [1, 5]: 1 (33.3) n (%)
Not evaluable (best overall response) [1, 5]: 0 n (%)
PD (best overall response) [1, 5]: 2 (66.7) n (%)
Response rate (CR + PR) [1, 5]: 0 n (%)
Disease control rate (CR + PR + SD + non-CR/non-PD) [1, 6]: 2 (40.0) n (%)
Not evaluable (best overall response) [1, 6]: 0 n (%)
PD (best overall response) [1, 6]: 3 (60.0) n (%)
Response rate (CR + PR) [1, 6]: 0 n (%)
Disease control rate (CR + PR + SD + non-CR/non-PD) ([1]; weekly dosing Total, N = 10): 5 (50.0) n (%)
Not evaluable (best overall response) ([1]; weekly dosing Total, N = 10): 0 n (%)
PD (best overall response) ([1]; weekly dosing Total, N = 10): 5 (50.0) n (%)
Response rate (CR + PR) ([1]; weekly dosing Total, N = 10): 0 n (%)
best overall response ([1]; weekly dosing cohort): no patients showed a CR or PR
DCR ([1]; weekly dosing cohort, 10 patients, 95% CI 18.7–81.3): 50.0%
median PFS ([1]; weekly dosing cohort, 95% CI 1.0–7.0): 3.7 months
Disease control rate (CR + PR + SD + non-CR/non-PD) [1, 7]: 0 n (%)
Not evaluable (best overall response) [1, 7]: 0 n (%)
PD (best overall response) [1, 7]: 3 (100.0) n (%)
Response rate (CR + PR) [1, 7]: 0 n (%)
Disease control rate (CR + PR + SD + non-CR/non-PD) [1, 8]: 0 n (%)
Not evaluable (best overall response) [1, 8]: 1 (33.3) n (%)
PD (best overall response) [1, 8]: 2 (66.7) n (%)
Response rate (CR + PR) [1, 8]: 0 n (%)
Disease control rate (CR + PR + SD + non-CR/non-PD) [1, 9]: 0 n (%)
Not evaluable (best overall response) [1, 9]: 1 (16.7) n (%)
PD (best overall response) [1, 9]: 5 (83.3) n (%)
Response rate (CR + PR) [1, 9]: 0 n (%)
best overall response ([1]; weekly dosing with lead-in period cohort): no patients showed CR, PR, or SD
median PFS ([1]; weekly dosing with lead-in period cohort, 95% CI 0.5–2.9): 1.5 months
dose dependence of Cmax and AUC ([2]; dose range of 10–56 mg/m^2): generally increased with increasing dose
accumulation ratio of AUC0-last [R (AUC0-last)] [2, 10]: ~1.0
accumulation ratio of Cmax [R (Cmax)] [2, 10]: ~1.0
